Assay results taken from the CheMixHub ionic liquid set.

Assay: xn = mol fraction of the nth substance listed

CC(=O)[O-].CN1CCCN2CCC[NH+]=C12 + O
101.3 kPa
Conditions | viscosity [mPa·s]
278.2 K, x1 = 0.405 | 1800
283.2 K, x1 = 0.103 | 33
283.2 K, x1 = 0.206 | 204
283.2 K, x1 = 0.494 | 1496
283.2 K, x1 = 0.604 | 1825
293.2 K, x1 = 0.405 | 378
298.2 K, x1 = 0.301 | 144.9
298.2 K, x1 = 0.494 | 339.1
303.2 K, x1 = 0.301 | 99.8
303.2 K, x1 = 0.604 | 259.2
308.2 K, x1 = 0.206 | 32.5
308.2 K, x1 = 0.301 | 70.9
313.2 K, x1 = 0.301 | 51.8
313.2 K, x1 = 0.494 | 109
318.2 K, x1 = 0.301 | 39.02
318.2 K, x1 = 0.494 | 79.4
323.2 K, x1 = 0.604 | 66.33
333.2 K, x1 = 0.206 | 10.12
338.2 K, x1 = 0.494 | 28.19
343.2 K, x1 = 0.103 | 2.76
353.2 K, x1 = 0.301 | 8.98
358.2 K, x1 = 0.103 | 1.97
358.2 K, x1 = 0.206 | 4.58
358.2 K, x1 = 0.604 | 14.29
363.2 K, x1 = 0.604 | 12.16
368.2 K, x1 = 0.103 | 1.62
368.2 K, x1 = 0.604 | 10.46
373.2 K, x1 = 0.103 | 1.5
373.2 K, x1 = 0.301 | 5.14
373.2 K, x1 = 0.604 | 9.11

CC(=O)[O-].Cn1cc[nH+]c1 + O
Conditions | electrical conductivity [S/m] | viscosity [mPa·s]
293.15 K, 101.3 kPa, x2 = 0.0705 | 0.905 | –
293.15 K, 101.3 kPa, x2 = 0.1339 | 1.176 | –
293.15 K, 101.3 kPa, x2 = 0.8407 | 8.771 | –
293.15 K, 101.3 kPa, x2 = 0.9035 | 6.875 | –
298.15 K, 101 kPa, x1 = 0.0051 | 1.17 | –
298.15 K, 101 kPa, x1 = 0.0151 | 2.49 | –
298.15 K, 101 kPa, x2 = 0.9502 | 3.87 | –
298.15 K, 101 kPa, x2 = 0.98 | 2.71 | –
303.15 K, 101 kPa, x2 = 0 | – | 5.91
313.15 K, 101 kPa, x2 = 0 | – | 4.395

CCCCCCCCn1cc[n+](C)c1C.[Cl-] + O
298 K, 101 kPa
Conditions | electrical conductivity [S/m]
x1 = 2.703e-05 | 0.02
x1 = 0.0001369 | 0.09
x1 = 0.000245 | 0.14
x1 = 0.0003531 | 0.2
x1 = 0.0004899 | 0.27
x1 = 0.0007347 | 0.32
x1 = 0.0008984 | 0.41
x1 = 0.001197 | 0.48
x1 = 0.001468 | 0.58
x1 = 0.001766 | 0.69
x1 = 0.002039 | 0.79
x1 = 0.002391 | 0.88
x1 = 0.002715 | 0.99
x1 = 0.003203 | 1.14
x1 = 0.003772 | 1.32
x1 = 0.004474 | 1.48
x1 = 0.005202 | 1.66
x1 = 0.005876 | 1.77
x1 = 0.006575 | 1.9
x1 = 0.007219 | 2.02
x1 = 0.007783 | 2.11
x1 = 0.008319 | 2.19
x1 = 0.0088 | 2.26
x1 = 0.009202 | 2.34
x1 = 0.009496 | 2.39

CCCCCC[n+]1ccn(C)c1.C[C@H](N)C(=O)[O-] + O
viscosity [mPa·s], 100 kPa
Conditions | 288.15 K | 293.15 K | 298.15 K | 303.15 K | 308.15 K | 313.15 K | 318.15 K | 323.15 K | 328.15 K
x1 = 0.000299 | 1.156 | 1.017 | 0.902 | 0.809 | 0.728 | 0.661 | 0.603 | 0.554 | 0.512
x1 = 0.0003981 | 1.162 | 1.022 | 0.907 | 0.813 | 0.732 | 0.664 | 0.606 | 0.557 | 0.514
x1 = 0.0004989 | 1.167 | 1.026 | 0.911 | 0.816 | 0.735 | 0.666 | 0.608 | 0.559 | 0.516
x1 = 0.0009991 | 1.203 | 1.057 | 0.937 | 0.838 | 0.755 | 0.684 | 0.626 | 0.573 | 0.53
x1 = 0.003 | 1.361 | 1.191 | 1.05 | 0.933 | 0.833 | 0.754 | 0.684 | 0.626 | 0.576
x1 = 0.00499 | 1.512 | 1.325 | 1.162 | 1.027 | 0.916 | 0.825 | 0.745 | 0.681 | 0.625
x1 = 0.006965 | 1.656 | 1.445 | 1.272 | 1.118 | 0.997 | 0.893 | 0.805 | 0.736 | 0.672
x1 = 0.008965 | 1.819 | 1.573 | 1.367 | 1.202 | 1.069 | 0.958 | 0.866 | 0.781 | 0.717
x1 = 0.01103 | 1.954 | 1.694 | 1.475 | 1.287 | 1.145 | 1.026 | 0.928 | 0.831 | 0.763
x1 = 0.01294 | 2.097 | 1.814 | 1.577 | 1.377 | 1.223 | 1.087 | 0.984 | 0.887 | 0.807
x1 = 0.01501 | 2.242 | 1.953 | 1.69 | 1.466 | 1.303 | 1.161 | 1.035 | 0.936 | 0.854
x1 = 0.01801 | 2.455 | – | – | – | – | – | – | – | –

CCCC[N+](CCCC)(CCCC)CCCC.O=S(=O)([O-])O + O
viscosity [mPa·s], 101 kPa
Conditions | x1 = 9.009e-05 | x1 = 0.0001802 | x1 = 0.0002702 | x1 = 0.0003603
298.15 K | 0.894 | 0.896 | 0.899 | 0.901
308.15 K | 0.723 | 0.726 | 0.728 | 0.73
318.15 K | 0.602 | 0.603 | 0.605 | 0.608
